{"source": "patent US20050113455A1", "about": "“Method and composition for amelioration of pain” (priority 2003, published 2005)", "key": {"[1]": {"system": "visceral nociception (stretching) in mice", "experiment": "Murine visceral pain model: stretching in mouse i.p. acetic acid test", "type": "in vivo", "details": "for Potency at inhibiting visceral nociception relative to morphine: mouse i.p. acetic acid test, dose-response relationships; for MED (minimum dose at which the number of stretches during the observation period is significantly different from saline controls): mouse, s.c. administration, 0.6% acetic acid i.p., 30 min observation", "description": "Dose-response relationships for the polyamines listed in Table 1 were performed in the mouse i.p. acetic acid test.\nAssessment of Candidate Agents in a Murine Visceral Pain Model: There is an extensive literature on visceral pain in the acetic acid mouse model (Bidlack J M, Cohen D J, McLaughlin J P, Lou R, Ye Y, Wentland M P. 8-carboxamidocyclazocine: A long-acting, novel benzomorphan. J Pharmacol Exp Ther. 2002;302:374-380; Reichert J A, Daughters R S, Rivard R, Simone D A. Peripheral and preemptive opioid antinociception in a mouse visceral pain model. Pain. 2001;89:221-227; Farzin D, Asghari L, Nowrouzi M. Rodent antinociception following acute treatment with different histamine receptor agonists and antagonists. Pharmacol Biochem Behav. 2002;72:751-760; Hinschberger A, Butt 5, Lelong V, Boulouard M, Dumuis A, Dauphin F, Bureau R, Pfeiffer B, Renard P, Rault S. New benzo[h][1,6]naphthyridine and azepino[3,2-c]quinoline derivatives as selective antagonists of 5-ht4 receptors: Binding profile and pharmacological characterization. J Med Chem. 2003;46:138-147).\nThe mice receive either an s.c. or i.p. injection (0.3 mL) of either saline or a test drug at varying doses. Fifteen to thirty minutes following the treatment, the animals receive an i.p. injection of 0.6% acetic acid in saline (sterile, 0.3 mL). The mice are then placed into holding cages and observed for 30 mm. The number of stretches the animals make following the acetic acid injections are counted. A stretch is identified by the animal extending its hind legs well behind its body. This posture is rarely seen in a non-injected animal."}, "[2]": {"details": "cited from earlier work"}}}
{"compound": "CCNCCCN[C@H]1CC[C@H](NCCCNCC)CC1", "note": "[CHX(3,4,3)-trans, N,N′-bis[3-(ethylamino)propyl]-trans-1,4-cyclohexanediamine]", "values": [{"measurement": "Potency at inhibiting visceral nociception relative to morphine", "setting": "[1]", "value": "more than three orders of magnitude more potent than morphine"}, {"measurement": "MED (minimum dose at which the number of stretches during the observation period is significantly different from saline controls)", "setting": "[1]", "value": 0.0037, "unit": "mg/kg s.c."}]}
{"compound": "CCCCNCCCNCCCCNCCCNCCCC", "note": "[DBSPM, N^1N^11-dibutylspermine]", "values": [{"measurement": "MED (minimum dose at which the number of stretches during the observation period is significantly different from saline controls)", "setting": "[1]", "value": 0.12, "unit": "mg/kg s.c."}]}
{"compound": "CCNCCCCNCCCCNCCCCNCC", "note": "[DEHSPM, N^1,N^14-diethylhomospermine]", "values": [{"measurement": "Effectiveness in the murine visceral pain model (in words)", "setting": "[1]", "value": "highly effective"}, {"measurement": "Potency at inhibiting visceral nociception relative to morphine", "setting": "[1]", "value": "equipotent to morphine"}, {"measurement": "Cognitive effects in human clinical trials", "setting": "[2]", "value": "lack of cognitive effects"}]}
{"compound": "CCNCCCNCCCNCCCNCC", "note": "[DENSPM, N^1,N^11-diethylnorspermine]", "values": [{"measurement": "Effectiveness in the murine visceral pain model (in words)", "setting": "[1]", "value": "highly effective"}, {"measurement": "MED (minimum dose at which the number of stretches during the observation period is significantly different from saline controls)", "setting": "[1]", "value": 0.37, "unit": "mg/kg s.c."}]}
{"compound": "CCNCCCNCCCCNCCCNCC", "note": "[DESPM, N^1,N^12-diethylspermine]", "values": [{"measurement": "Effectiveness in the murine visceral pain model (in words)", "setting": "[1]", "value": "less so"}]}
{"compound": "CC(C)NCCCNCCCCNCCCNC(C)C", "note": "[DIPSPM, N^1N^12-diisopropylspermime]", "values": [{"measurement": "Effectiveness in the murine visceral pain model (in words)", "setting": "[1]", "value": "less so"}]}
{"compound": "C(CCNC1CCNCC1)CNC1CCNCC1", "note": "[PIP(3,4,3), N,N′-bis(4-piperidinyl)-1,4-butanediamine]", "values": [{"measurement": "Effectiveness in the murine visceral pain model (in words)", "setting": "[1]", "value": "less so"}]}
{"compound": "CN1CC[C@]23c4c5ccc(O)c4O[C@H]2[C@@H](O)C=C[C@H]3[C@H]1C5", "note": "[morphine, reference compound]", "values": [{"measurement": "Overt cognitive / behavioural effects in mice", "setting": "[1]; observed during mouse i.p. acetic acid test", "value": "produced stereotypical opiate induced hyperactivity and Straub tail"}]}
{"compound": "dihydroxydiethylnorspermine [(HO)2DENSPM]", "values": [{"measurement": "MED (minimum dose at which the number of stretches during the observation period is significantly different from saline controls)", "setting": "[1]", "value": 0.0037, "unit": "mg/kg s.c."}]}
